In patent publication US10173968B2, “Bishydrazone-based antifungal agents” (University of Kentucky Research Foundation, priority 2016, dated 2019):
Like-named read-outs stand apart in the source and are kept apart here.

Tests used:
E. coli MC1061 = assay: Antibacterial MIC, double-dilution method; assay type: cell-based; details: Escherichia coli, strain G, Gram-negative, read-out: MIC
In short: (§1)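 Compounds were first screened at 500 μM each, then MICs were read by serial twofold dilution of the compound against the bacterial strain.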

M. smegmatis MC2-155 = assay: Antibacterial MIC, double-dilution method; assay type: cell-based; details: Mycolicibacterium smegmatis, MC2155, strain K, mycobacterial, read-out: MIC
In short: as §1

E. cloacae ATCC 13047 = assay: Antibacterial MIC, double-dilution method; assay type: cell-based; details: Enterobacter cloacae, ATCC13047, strain F, Gram-negative, read-out: MIC
In short: as §1

A. baumannii ATCC 19606 = assay: Antibacterial MIC, double-dilution method; assay type: cell-based; details: Acinetobacter baumannii, ATCC19606, strain E, Gram-negative, read-out: MIC
In short: as §1

[1] = system: L. monocytogenes ATCC 19115; assay: Antibacterial MIC, double-dilution method; assay type: cell-based; details: Listeria monocytogenes, ATCC19115, strain B, Gram-positive, read-out: MIC
In short: as §1

VRE = assay: Antibacterial MIC, double-dilution method; assay type: cell-based; details: Enterococcus, strain D, Gram-positive, read-out: MIC
In short: as §1

S. enterica ATCC 14028 = assay: Antibacterial MIC, double-dilution method; assay type: cell-based; details: Salmonella enterica, ATCC14028, strain J, Gram-negative, read-out: MIC
In short: as §1

K. pneumoniae ATCC 27736 = assay: Antibacterial MIC, double-dilution method; assay type: cell-based; details: Klebsiella pneumoniae, ATCC27736, strain H, Gram-negative, read-out: MIC
In short: as §1

MRSA = assay: Antibacterial MIC, double-dilution method; assay type: cell-based; details: Staphylococcus aureus, strain C, Gram-positive, read-out: MIC
In short: as §1

B. subtilis 168 = assay: Antibacterial MIC, double-dilution method; assay type: cell-based; details: Bacillus subtilis, strain A, Gram-positive
In short: as §1

P. aeruginosa ATCC 27853 = assay: Antibacterial MIC, double-dilution method; assay type: cell-based; details: Pseudomonas aeruginosa, ATCC27853, strain I, Gram-negative, read-out: MIC
In short: as §1

C. albicans ATCC 2310 = assay: Antifungal MIC, CLSI M27-A3 microbroth dilution; assay type: cell-based, Candida albicans; details: Candida albicans, ATCC2310, C. albicans ATCC 2310, susceptible to FLC, ITC, and VOR, read-out: MIC
Method: (§2) In vitro MIC testing was performed according to the CLSI M27-A3 standard microbroth dilution methodology for the susceptibility testing of yeasts with minor modifications.

C. albicans ATCC 10231 = assay: Antifungal MIC, CLSI M27-A3 microbroth dilution; assay type: cell-based, Candida albicans; details: Candida albicans, ATCC10231, C. albicans ATCC 10231, resistant to FLC, ITC, and VOR, read-out: MIC
Method: as §2

C. albicans ATCC 2876 = assay: Antifungal MIC, CLSI M27-A3 microbroth dilution; assay type: cell-based, Candida albicans; details: Candida albicans, ATCC2876, C. albicans ATCC 2876, susceptible to FLC, ITC, and VOR, read-out: MIC
Method: as §2

C. albicans ATCC 90819 = assay: Antifungal MIC, CLSI M27-A3 microbroth dilution; assay type: cell-based, Candida albicans; details: Candida albicans, ATCC90819, C. albicans ATCC 90819, resistant to FLC, ITC, and VOR, read-out: MIC
Method: as §2

C. albicans ATCC 1003 = assay: Antifungal MIC, CLSI M27-A3 microbroth dilution; assay type: cell-based, Candida albicans; details: Candida albicans, ATCC1003, read-out: MIC
Method: as §2

C. albicans ATCC 64124 = assay: Antifungal MIC, CLSI M27-A3 microbroth dilution; assay type: cell-based, Candida albicans; details: Candida albicans, ATCC64124, C. albicans ATCC 64124, resistant to FLC, ITC, and VOR, read-out: MIC
Method: as §2

C. albicans ATCC 1237 = assay: Antifungal MIC, CLSI M27-A3 microbroth dilution; assay type: cell-based, Candida albicans; details: Candida albicans, ATCC1237, C. albicans ATCC 1237, resistant to FLC, ITC, and VOR, read-out: MIC
Method: as §2

[2] = system: C. albicans strains (panel of seven); assay: Antifungal MIC, summary over the panel; assay type: cell-based, Candida albicans; details: for antifungal activity in words: against all fungal strains tested
In short: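 Performed by CLSI M27-A3 broth microdilution for yeast susceptibility, with minor modifications. MIC was read visually as the lowest concentration giving complete growth inhibition relative to the growth control.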

[3] = C. albicans ATCC 1003, converted from μg/mL

Structure (SMILES) | MIC (E. coli MC1061; converted from μM) | MIC (E. coli MC1061; range 0.5 to 500 μM) | MIC (M. smegmatis MC2-155; converted from μM) | MIC (M. smegmatis MC2-155; range 0.5 to 500 μM) | MIC (E. cloacae ATCC 13047; converted from μM) | MIC (E. cloacae ATCC 13047; range 0.5 to 500 μM) | MIC (A. baumannii ATCC 19606; converted from μM) | MIC (A. baumannii ATCC 19606; range 0.5 to 500 μM) | MIC ([1]; converted from μM) | MIC ([1]; range 0.5 to 500 μM) | MIC (VRE; converted from μM) | MIC (S. enterica ATCC 14028; converted from μM) | MIC (S. enterica ATCC 14028; range 0.5 to 500 μM) | MIC (K. pneumoniae ATCC 27736; converted from μM) | MIC (K. pneumoniae ATCC 27736; range 0.5 to 500 μM) | MIC (MRSA; converted from μM) | MIC (B. subtilis 168; converted from μM) | MIC (B. subtilis 168; range 0.5 to 500 μM) | MIC (P. aeruginosa ATCC 27853; converted from μM) | MIC (P. aeruginosa ATCC 27853; range 0.5 to 500 μM) | further results
Cl.N=C(N)N/N=C/c1ccc(-c2ccc(/C=N/Nc3ccc(Cl)cc3)cc2)cc1 [Compound 7Ad, (E)-2-((4′-((E)-(2-(4-Chlorophenyl)hydrazono)methyl)-[1,1′-biphenyl]-4-yl)methylene)hydrazine-1-carboximidamide monohydrochloride] | > 214 µg/mL | > 500 µM | 1.7 µg/mL | 3.9 µM | > 214 µg/mL | > 500 µM | > 214 µg/mL | > 500 µM | 1.7 µg/mL | 3.9 µM | 1.7 µg/mL | > 214 µg/mL | > 500 µM | > 214 µg/mL | > 500 µM | 3.3 µg/mL | > 214 µg/mL | > 500 µM | > 214 µg/mL | > 500 µM | MIC (VRE; range 0.5 to 500 μM): 3.9 µM; MIC (MRSA; range 0.5 to 500 μM): 7.8 µM; MIC (C. albicans ATCC 2310; converted from μg/mL): 9.1 µM; MIC (C. albicans ATCC 2310): 3.9 µg/mL; MIC (C. albicans ATCC 10231; converted from μg/mL): 18.3 µM; MIC (C. albicans ATCC 10231): 7.8 µg/mL; MIC (C. albicans ATCC 2876; converted from μg/mL): 18.3 µM; MIC (C. albicans ATCC 2876): 7.8 µg/mL; MIC (C. albicans ATCC 90819; converted from μg/mL): 18.3 µM; MIC (C. albicans ATCC 90819): 7.8 µg/mL; MIC (C. albicans ATCC 1003; [3]): 9.1 µM; MIC (C. albicans ATCC 1003): 3.9 µg/mL; MIC (C. albicans ATCC 64124; converted from μg/mL): 36.5 µM; MIC (C. albicans ATCC 64124): 15.6 µg/mL; MIC (C. albicans ATCC 1237; converted from μg/mL): 36.5 µM; MIC (C. albicans ATCC 1237): 15.6 µg/mL; MIC ([2]; Candida albicans, all, most or majority of the fungal strains, read-out: MIC, span over C. albicans strains): 7.8 to 15.6 µg/mL
Cl.N=C(N)N/N=C/c1ccc(-c2ccc(/C=N/Nc3ccc(F)cc3F)cc2)cc1 [Compound 7Af, (E)-2-((4′-((E)-(2-(2,4-Difluorophenyl)hydrazono)methyl)-[1,1′-biphenyl]-4-yl)methylene) hydrazine-1-carboximidamide, monohydrochloride] | > 214 µg/mL | > 500 µM | 0.9 to 1.7 µg/mL | 2 to 3.9 µM | > 214 µg/mL | > 500 µM | > 214 µg/mL | > 500 µM | 0.9 to 1.7 µg/mL | 2 to 3.9 µM | 1.7 µg/mL | > 214 µg/mL | > 500 µM | > 214 µg/mL | > 500 µM | 1.7 µg/mL | > 214 µg/mL | > 500 µM | > 214 µg/mL | > 500 µM | MIC (VRE; range 0.5 to 500 μM): 3.9 µM; MIC (MRSA; range 0.5 to 500 μM): 3.9 µM; MIC (C. albicans ATCC 2310; converted from μg/mL): 9.1 µM; MIC (C. albicans ATCC 2310): 3.9 µg/mL; MIC (C. albicans ATCC 10231; converted from μg/mL): 2.3 µM; MIC (C. albicans ATCC 10231): 1 µg/mL; MIC (C. albicans ATCC 2876; converted from μg/mL): 9.1 µM; MIC (C. albicans ATCC 2876): 3.9 µg/mL; MIC (C. albicans ATCC 90819; converted from μg/mL): 18.2 µM; MIC (C. albicans ATCC 90819): 7.8 µg/mL; MIC (C. albicans ATCC 1003; [3]): 4.5 µM; MIC (C. albicans ATCC 1003): 2 µg/mL; MIC (C. albicans ATCC 64124; converted from μg/mL): 9.1 µM; MIC (C. albicans ATCC 64124): 3.9 µg/mL; MIC (C. albicans ATCC 1237; converted from μg/mL): 9.1 µM; MIC (C. albicans ATCC 1237): 3.9 µg/mL; antifungal activity in words [2]: excellent antifungal activities
Cl.Cl.N=C(N)N/N=C/c1ccc(-c2cccc(/C=N/NC(=N)N)c2)cc1 [Compound 3B, (2E,2′E)-2,2′-([1,1′-Biphenyl]-3,4′-diylbis(methanylylidene))bis(hydrazine-1-carboximidamide) dihydrochloride] | > 198 µg/mL | > 500 µM | 0.4 µg/mL | 1 µM | > 198 µg/mL | > 500 µM | > 198 µg/mL | > 500 µM | 0.4 µg/mL | 1 µM | 1.5 µg/mL | > 198 µg/mL | > 500 µM | > 198 µg/mL | > 500 µM | 1.5 µg/mL | > 198 µg/mL | > 500 µM | > 198 µg/mL | > 500 µM | MIC (VRE; range 0.5 to 500 μM): 3.9 µM; MIC (MRSA; range 0.5 to 500 μM): 3.9 µM; MIC (C. albicans ATCC 2310; converted from μg/mL): 9.9 µM; MIC (C. albicans ATCC 2310): 3.9 µg/mL; MIC (C. albicans ATCC 10231; converted from μg/mL): 9.9 µM; MIC (C. albicans ATCC 10231): 3.9 µg/mL; MIC (C. albicans ATCC 2876; converted from μg/mL): 9.9 µM; MIC (C. albicans ATCC 2876): 3.9 µg/mL; MIC (C. albicans ATCC 90819; converted from μg/mL): 9.9 µM; MIC (C. albicans ATCC 90819): 3.9 µg/mL; MIC (C. albicans ATCC 1003; [3]): 9.9 µM; MIC (C. albicans ATCC 1003): 3.9 µg/mL; MIC (C. albicans ATCC 64124; converted from μg/mL): 9.9 µM; MIC (C. albicans ATCC 64124): 3.9 µg/mL; MIC (C. albicans ATCC 1237; converted from μg/mL): 9.9 µM; MIC (C. albicans ATCC 1237): 3.9 µg/mL; antifungal activity in words [2]: excellent antifungal activities
Cl.N=C(N)N/N=C/c1ccc(-c2ccc(C=NNc3ccccc3Cl)cc2)cc1 (mixture of isomers) [Compound 7Aa, E)-2-((4′-((E and Z)-(2-(2-Chlorophenyl)hydrazono)methyl)-[1,1′-biphenyl]-4-yl)methylene)hydrazine-1-carboximidamide monohydrochloride] | > 215 µg/mL | > 500 µM | 1.7 µg/mL | 3.9 µM | > 215 µg/mL | > 500 µM | > 215 µg/mL | > 500 µM | 0.4 to 0.9 µg/mL | 1 to 2 µM | 0.9 µg/mL | > 215 µg/mL | > 500 µM | > 215 µg/mL | > 500 µM | 0.9 µg/mL | > 215 µg/mL | > 500 µM | > 215 µg/mL | > 500 µM | MIC (C. albicans ATCC 2310; converted from μg/mL): 4.6 µM; MIC (C. albicans ATCC 10231; converted from μg/mL): 4.6 µM; MIC (C. albicans ATCC 2876; converted from μg/mL): 4.6 µM; MIC (C. albicans ATCC 90819; converted from μg/mL): 4.6 µM; MIC (C. albicans ATCC 1003; [3]): 4.6 µM; MIC (C. albicans ATCC 64124; converted from μg/mL): 9.2 µM; MIC (C. albicans ATCC 64124): 3.9 µg/mL; MIC (C. albicans ATCC 1237; converted from μg/mL): 9.2 µM; MIC (C. albicans ATCC 1237): 3.9 µg/mL; antifungal activity in words [2]: excellent antifungal activities
